Earlier results in US11718832B2, “Method to reduce oncogenic potential of induced pluripotent stem cells from aged donors” (MEMORIAL SLOAN-KETTERING CANCER CENTER, priority 2014, dated 2023).

Tested on: GSS
Conditions: literature

Compound	Inhibition of GSS
[N-]=[N+]=CC(=O)CC[C@H](N)C(=O)O [6-Diazo-5-oxo-L-norleucine]	inhibit GSS
[N-]=[N+]=CC(=O)OC[C@H](N)C(=O)O [azaserine]	inhibit GSS
CCCCS(=N)(=O)CCC(N)C(=O)O (stereo not drawn) [buthionine sulfoximine]	inhibit GSS
